How the values were obtained:
Experiment in all cases: In vivo IPTG dose-response of LacI-regulated eYFP expression from the pVER plasmid in E. coli grown in rich M9 medium at 37 °C, measured by flow cytometry and fitted to the Hill equation by Bayesian MCMC (posterior mean and SD).
Assay type in all cases: cell-based, E. coli MG1655Δlac
Conditions in all cases: read-out: log_ec50 (base-10 logarithm of EC50 in μmol/L) (converted)
pVER-IPTG-001 = molecular target: T1, pVER-IPTG-001 (Escherichia coli, UniProt P03023, D130E/D267N/N333I/Q55H/T258I/V192A/Y273H)
T1 construct: gene lacI; LacI expressed from pVER plasmid
Protocol: (§1) All reported measurements were completed using E. coli strain MG1655Δlac, in which the lactose operon of E. coli strain MG1655 (ATCC #47076) was replaced with the bleomycin resistance gene from Streptoalloteichus hindustanus (Shble).
(§2) Dose-response curves were measured with flow cytometry using E. coli MG1655Δlac transformed with variants of the pVER plasmid, described previously. The plasmid contained different variants of the lacI coding DNA sequence (CDS), as described in the text, and an expression cassette with enhanced yellow fluorescent protein (eYFP) under the control of the lactose operator (lacO). The lacI CDS was verified with Sanger sequencing for each variant.
(§3) All cultures were grown in a rich M9 media (3 g/L KH2PO4, 6.78 g/L Na2HPO4, 0.5 g/L NaCl, 1 g/L NH4Cl, 0.1 mmol/L CaCl2, 2 mmol/L MgSO4, 4% glycerol, and 20 g/L casamino acids) supplemented with 50 μg/mL kanamycin.
(§4) • Prepare first growth plate, with 450 μL rich M9 media in each well. • Pipette 50 μL of starter culture into each well in rows B-G of the plate (leaving rows A and H blank). • Use a E. coli containing a different lacI variant for each row. • Seal first growth plate with gas permeable membrane. • Incubate plate in plate reader for 12 h to 14 h. • Grow to stationary to provide a reproducible starting point for each measurement. • Prepare second growth plate with 490 μL in each well. • Dilution series of isopropyl-β-D-thiogalactopyranoside (IPTG): 11 columns of a 2-fold serial dilution gradient and one column with zero IPTG. • Ten minutes before the end of the incubation cycle for the first growth plate, move the second growth plate to a heated station set to 47°C. • Ten minutes at 47°C will pre-warm the media in the plate to 37°C. • De-seal the first growth plate (after completion of the stationary-phase incubation cycle). • Pipette 10 μL from each well in the first growth plate to the corresponding well in the second growth plate. • 50-fold dilution; using a 96-channel pipetting head. • Seal second growth plate with gas permeable membrane. • Incubate second growth plate in plate reader for 160 minutes. • Sufficient for approximately 10-fold increase in cell density or 3.3 doublings. • Prepare third growth plate with 450 μL in each well. • Same dilution series as in second growth plate. • Ten minutes before the end of the incubation cycle for the second growth plate, move the third growth plate to a heated station set to 47°C. • De-seal the second growth plate (after completion of the 160 minute incubation cycle). • Pipette 50 μL from each well in the second growth plate to the corresponding well in the third growth plate. • 10-fold dilution; using a 96-channel pipetting head. • Seal third growth plate with gas permeable membrane. • Incubate third growth plate in plate reader for 160 minutes. • Prepare flow cytometry sample plate (round-bottom 96-well plate, Falcon, 351177). • Each well in rows B-G: 195 μL 1x PBS with 170 μg/mL chloramphenicol (Fisher BioReagents, cat. #BP904-100). • Rows A and H: PBS blanks, focusing fluid blanks, and space for calibration bead sample • At the end of the incubation cycle for the third growth plate, pipette 5 μL from each well to the corresponding well in the flow cytometry sample plate.
(§5) Flow cytometry samples were measured with an Attune NxT flow cytometer equipped with a 96-well plate autosampler using a 488 nm excitation laser and a 530 nm ± 15 nm bandpass emission filter. Blank samples were measured with each batch of cell measurements, and an automated gating algorithm was used to discriminate cell events from non-cell events. Fluorescence calibration beads (Spherotech, part no. RCP-30-20A) were also measured with each batch of samples to facilitate calibration of flow cytometry data to molecules of equivalent fluorescein (MEF). […]

pVER-IPTG-003 = molecular target: T2, pVER-IPTG-003 (Escherichia coli, UniProt P03023, A337V/G200V/H74Y/K290R/L262M/Q306H/R207H/V119I/V52M)
T2 construct: gene lacI; LacI expressed from pVER plasmid; stop codon at 352
Protocol: as §1, §2, §3, §4, §5

pVER-IPTG-007 = molecular target: T3, pVER-IPTG-007 (Escherichia coli, UniProt P03023, A199V/D88Y/K84E/L342M/L90P/Q153L/R351P/S358R)
T3 construct: gene lacI; LacI expressed from pVER plasmid
Protocol: as §1, §2, §3, §4, §5

pVER-IPTG-078 = molecular target: T4, pVER-IPTG-078 (Escherichia coli, UniProt P03023, A110V/A72V/N142D/S322L)
T4 construct: gene lacI; LacI expressed from pVER plasmid
Protocol: as §1, §2, §3, §4, §5

pVER-IPTG-077 = molecular target: T5, pVER-IPTG-077 (Escherichia coli, UniProt P03023, A222T/D152E/I64V/K327N/L295M/N208I/Q131R/T141A/V95M)
T5 construct: gene lacI; LacI expressed from pVER plasmid
Protocol: as §1, §2, §3, §4, §5

pVER-IPTG-005 = molecular target: T6, pVER-IPTG-005 (Escherichia coli, UniProt P03023, A176S/E172D/F226Y/G91D/R101G/S158C/T167M/T276S/T299A/V94A)
T6 construct: gene lacI; LacI expressed from pVER plasmid
Protocol: as §1, §2, §3, §4, §5

pVER-IPTG-079 = molecular target: T7, pVER-IPTG-079 (Escherichia coli, UniProt P03023, A116T/S190C/T141I/V99E)
T7 construct: gene lacI; LacI expressed from pVER plasmid
Protocol: as §1, §2, §3, §4, §5

pVER-IPTG-004(S70R) = molecular target: T8, pVER-IPTG-004(S70R) (Escherichia coli, UniProt P03023, A87P/E357G/S70R/V301M)
T8 construct: gene lacI; LacI expressed from pVER plasmid
Protocol: as §1, §2, §3, §4, §5

pVER-IPTG-080 = molecular target: T9, pVER-IPTG-080 (Escherichia coli, UniProt P03023, A109E/D165V/E259G/G166A/R255C)
T9 construct: gene lacI; LacI expressed from pVER plasmid
Protocol: as §1, §2, §3, §4, §5

pVER-IPTG-002 = molecular target: T10, pVER-IPTG-002 (Escherichia coli, UniProt P03023, M254I/S158R/T154I/V238D/V264I/V96E)
T10 construct: gene lacI; LacI expressed from pVER plasmid
Protocol: as §1, §2, §3, §4, §5

pVER-IPTG-002(V136E) = molecular target: T11, pVER-IPTG-002(V136E) (Escherichia coli, UniProt P03023, M254I/S158R/T154I/V136E/V238D/V264I/V96E)
T11 construct: gene lacI; LacI expressed from pVER plasmid
Protocol: as §1, §2, §3, §4, §5

pVER-IPTG-009 = molecular target: T12, pVER-IPTG-009 (Escherichia coli, UniProt P03023, I210L/I283N/M254T/N157D/P76Q/Q181H/V150A)
T12 construct: gene lacI; LacI expressed from pVER plasmid
Protocol: as §1, §2, §3, §4, §5

T1 sequence (P03023 whole entry Q55H/D130E/V192A/T258I/D267N/Y273H/N333I): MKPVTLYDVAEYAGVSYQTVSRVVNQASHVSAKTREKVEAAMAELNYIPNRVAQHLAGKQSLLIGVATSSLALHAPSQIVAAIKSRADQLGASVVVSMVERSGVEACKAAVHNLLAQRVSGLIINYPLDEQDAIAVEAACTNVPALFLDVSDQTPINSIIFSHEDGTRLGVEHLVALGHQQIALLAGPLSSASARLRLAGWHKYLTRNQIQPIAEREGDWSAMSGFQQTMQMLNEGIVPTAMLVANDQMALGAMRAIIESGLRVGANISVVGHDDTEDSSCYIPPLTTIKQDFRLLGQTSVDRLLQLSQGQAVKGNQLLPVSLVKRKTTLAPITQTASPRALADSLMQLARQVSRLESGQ
T12 sequence (P03023 whole entry P76Q/V150A/N157D/Q181H/I210L/M254T/I283N): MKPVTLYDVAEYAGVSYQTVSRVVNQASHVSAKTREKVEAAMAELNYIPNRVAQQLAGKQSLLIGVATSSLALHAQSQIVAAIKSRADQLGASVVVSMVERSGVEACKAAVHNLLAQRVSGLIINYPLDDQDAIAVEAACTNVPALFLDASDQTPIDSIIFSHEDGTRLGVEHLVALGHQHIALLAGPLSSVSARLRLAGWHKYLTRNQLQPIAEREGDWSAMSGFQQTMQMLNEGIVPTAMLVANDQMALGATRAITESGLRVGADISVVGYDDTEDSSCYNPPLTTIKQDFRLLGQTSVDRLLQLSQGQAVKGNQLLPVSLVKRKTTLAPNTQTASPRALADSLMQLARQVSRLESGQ
T11 sequence (P03023 whole entry V96E/V136E/T154I/S158R/V238D/M254I/V264I): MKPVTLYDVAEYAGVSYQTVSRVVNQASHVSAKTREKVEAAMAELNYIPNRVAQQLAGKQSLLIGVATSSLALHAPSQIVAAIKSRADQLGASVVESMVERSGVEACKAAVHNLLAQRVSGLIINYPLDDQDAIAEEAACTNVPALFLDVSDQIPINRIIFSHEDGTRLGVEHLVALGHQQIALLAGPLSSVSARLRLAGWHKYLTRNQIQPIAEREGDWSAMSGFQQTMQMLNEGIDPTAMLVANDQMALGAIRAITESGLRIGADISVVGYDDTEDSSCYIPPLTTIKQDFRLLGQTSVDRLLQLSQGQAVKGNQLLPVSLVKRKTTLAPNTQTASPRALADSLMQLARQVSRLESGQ
T8 sequence (P03023 whole entry S70R/A87P/V301M/E357G): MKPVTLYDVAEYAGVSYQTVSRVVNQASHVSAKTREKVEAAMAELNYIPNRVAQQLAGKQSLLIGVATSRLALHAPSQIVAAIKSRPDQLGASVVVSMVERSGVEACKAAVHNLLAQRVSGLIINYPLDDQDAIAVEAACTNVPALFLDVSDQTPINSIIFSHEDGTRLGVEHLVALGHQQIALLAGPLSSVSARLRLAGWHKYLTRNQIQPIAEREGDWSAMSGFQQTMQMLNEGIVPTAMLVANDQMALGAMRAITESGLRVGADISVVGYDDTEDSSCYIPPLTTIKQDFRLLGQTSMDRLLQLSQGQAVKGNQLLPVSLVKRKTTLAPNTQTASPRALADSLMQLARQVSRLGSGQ
T2 sequence (P03023 1-351 V52M/H74Y/V119I/G200V/R207H/L262M/K290R/Q306H/A337V): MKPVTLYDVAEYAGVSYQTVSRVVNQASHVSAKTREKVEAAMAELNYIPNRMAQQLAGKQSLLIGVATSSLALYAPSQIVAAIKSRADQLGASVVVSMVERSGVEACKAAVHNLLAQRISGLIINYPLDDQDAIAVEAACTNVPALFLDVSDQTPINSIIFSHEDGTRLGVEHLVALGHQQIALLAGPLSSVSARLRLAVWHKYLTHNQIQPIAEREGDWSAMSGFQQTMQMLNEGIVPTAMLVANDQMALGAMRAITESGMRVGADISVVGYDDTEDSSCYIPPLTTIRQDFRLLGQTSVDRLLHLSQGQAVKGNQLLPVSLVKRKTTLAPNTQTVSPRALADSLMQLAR
T7 sequence (P03023 whole entry V99E/A116T/T141I/S190C): as the sequence (P03023 whole entry S70R/A87P/V301M/E357G) above, with R70S, P87A, V99E, A116T, T141I, S190C, M301V, G357E counted along it
T5 sequence (P03023 whole entry I64V/V95M/Q131R/T141A/D152E/N208I/A222T/L295M/K327N): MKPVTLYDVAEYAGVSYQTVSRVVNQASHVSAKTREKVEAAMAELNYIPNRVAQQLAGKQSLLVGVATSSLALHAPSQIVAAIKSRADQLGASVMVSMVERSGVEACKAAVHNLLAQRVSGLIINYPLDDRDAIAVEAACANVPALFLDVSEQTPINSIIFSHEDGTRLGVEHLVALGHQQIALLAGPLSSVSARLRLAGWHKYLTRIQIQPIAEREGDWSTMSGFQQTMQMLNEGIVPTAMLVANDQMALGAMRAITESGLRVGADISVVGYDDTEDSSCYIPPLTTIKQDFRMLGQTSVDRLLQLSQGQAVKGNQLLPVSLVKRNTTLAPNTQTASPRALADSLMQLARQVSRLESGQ
T4 sequence (P03023 whole entry A72V/A110V/N142D/S322L): as the sequence (P03023 whole entry S70R/A87P/V301M/E357G) above, with R70S, A72V, P87A, A110V, N142D, M301V, S322L, G357E counted along it
T10 sequence (P03023 whole entry V96E/T154I/S158R/V238D/M254I/V264I): as the sequence (P03023 whole entry V96E/V136E/T154I/S158R/V238D/M254I/V264I) above, with E136V counted along it
T3 sequence (P03023 whole entry K84E/D88Y/L90P/Q153L/A199V/L342M/R351P/S358R): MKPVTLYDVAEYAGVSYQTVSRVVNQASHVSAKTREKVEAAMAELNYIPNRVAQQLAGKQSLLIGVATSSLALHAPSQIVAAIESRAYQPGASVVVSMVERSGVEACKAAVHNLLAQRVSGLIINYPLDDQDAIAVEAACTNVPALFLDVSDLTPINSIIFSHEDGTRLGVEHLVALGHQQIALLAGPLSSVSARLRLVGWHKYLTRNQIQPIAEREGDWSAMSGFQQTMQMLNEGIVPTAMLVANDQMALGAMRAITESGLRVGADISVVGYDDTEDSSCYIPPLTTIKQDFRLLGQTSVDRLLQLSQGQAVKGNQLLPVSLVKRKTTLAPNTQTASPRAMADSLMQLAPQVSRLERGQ
T9 sequence (P03023 whole entry A109E/D165V/G166A/R255C/E259G): as the sequence (P03023 whole entry S70R/A87P/V301M/E357G) above, with R70S, P87A, A109E, D165V, G166A, R255C, E259G, M301V, G357E counted along it
T6 sequence (P03023 whole entry G91D/V94A/R101G/S158C/T167M/E172D/A176S/F226Y/T276S/T299A): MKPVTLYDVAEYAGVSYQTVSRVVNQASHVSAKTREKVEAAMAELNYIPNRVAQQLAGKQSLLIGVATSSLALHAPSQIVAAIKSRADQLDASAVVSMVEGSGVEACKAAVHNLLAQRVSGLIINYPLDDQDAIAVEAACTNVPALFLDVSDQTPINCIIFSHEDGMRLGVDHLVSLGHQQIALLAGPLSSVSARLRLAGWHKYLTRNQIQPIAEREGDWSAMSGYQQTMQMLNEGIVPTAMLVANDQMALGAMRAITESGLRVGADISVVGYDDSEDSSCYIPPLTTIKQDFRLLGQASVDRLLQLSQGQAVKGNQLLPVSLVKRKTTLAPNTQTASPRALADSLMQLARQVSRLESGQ

Compound `CC(C)S[C@@H]1O[C@H](CO)[C@H](O)[C@H](O)[C@H]1O` [IPTG, isopropyl-β-D-thiogalactopyranoside] has an EC50 (pVER-IPTG-001) of 774 µmol/L, an EC50 (pVER-IPTG-003) of 162 µmol/L and an EC50 (pVER-IPTG-007) of 29.4 µmol/L. For the same compound, the EC50 (pVER-IPTG-078) was 3.61 µmol/L, the EC50 (pVER-IPTG-077) was 2.95 µmol/L and the EC50 (pVER-IPTG-005) was 203 µmol/L. For the same compound, the EC50 (pVER-IPTG-079) was 7.24 µmol/L, the EC50 (pVER-IPTG-004(S70R)) was 3890 µmol/L and the EC50 (pVER-IPTG-080) was 6.96 µmol/L. It also gave an EC50 (pVER-IPTG-002) of 233 µmol/L, an EC50 (pVER-IPTG-002(V136E)) of 464000 µmol/L and an EC50 (pVER-IPTG-009) of 169 µmol/L.
